Source: publication PMC12528448, “Resistance to CDK7 inhibitors directed by acquired mutation of a conserved residue in cancer cells” (The EMBO Journal, 2025)
Values joined by “and” are separate entries in the source; they are usually repeats but may differ in a detail not shown here. Identical values can stand only once.

Key:
Format in all cases: cell-based, human
[1] = tested on: PolII Ser2 phosphorylation, CCNK and CDK12 levels in MCF7-CDK12-D819N cells; assay: Immunoblotting after CDK12 drugs, MCF7-CDK12-D819N; conditions: 6 h, immunoblot
Description: (§1) Whole-cell lysates were prepared in RIPA buffer (Sigma-Aldrich), supplemented with protease and phosphatase inhibitor cocktails (Roche). Protein sample concentrations were determined using the Pierce BCA Protein Assay kit (ThermoFisher Scientific). In all, 10–20 µg of total protein was loaded for each sample and resolved on 4–15% Mini-PROTEAN TGX Precast Protein Gels (BIO-RAD). Immunoblotting was performed as described (Patel et al, [2018]), using antibodies diluted 1:1000 for P-CDK2 (Thr160; 2561S), CDK2 (2546S), P-Rb (Ser807/811; 9308), Rb (9309), CDK7 (2916) and CDK12 (11973S), from Cell Signalling Technology. PolII CTD phosphorylation antibodies (P-Ser2 (ab5095) and P-Ser5 (ab5131), used at 1:10,000 dilution), as well as total PolII (ab817; 1:2000 dilution) and β-actin (ab6276; 1:100,000 dilution) were purchased from Abcam. CCNK antibody (Thermofisher A301-939A) was used at a 1:1000 dilution. Band intensities were quantified using ImageJ (Schneider et al, [2012]).

MCF7 cells = assay: Growth assay (SRB), MCF7; conditions: for IC50: 4 days, SRB; for % Growth: biological reps
Description: (§2) To determine the IC50 of drug treatments on growth, cells were seeded in 96-well culture plates. Two days after seeding, the cells were treated with increasing concentrations of drugs and incubated for 4 days. Cell number was determined using the SRB assay (Skehan et al, [1990]), and IC50 values were calculated using non-linear regression curve fitting in GraphPad Prism v10. For all other growth experiments, cells were seeded into 96-well plates, and appropriate drugs were added 2 days after seeding. Cells were then incubated in an IncuCyte Zoom live-cell imager, with cell confluency measured every 6 h. Cell doubling times were determined by non-linear curve fitting (exponential growth equation) in GraphPad Prism v10.

[2] = tested on: MCF7 CDK12-D819N mutant cells; assay: Growth assay (SRB), MCF7 CDK12-D819N knock-in; conditions: for IC50: MCF7 CDK12-D819N, SRB; for % Growth: MCF7 CDK12 D819N, biological reps
Description: as §2
Alt-R^TM S.p. Cas9 nuclease V3, Alt-R CRISPR-Cas9 crRNA, TracrRNA and the donor templates were obtained from Integrated DNA Technologies. […] Cells were treated with 0.7 µM of Alt-R HDR Enhancer V2 to improve HRD efficiency. Sequences of the CRISPRs in the crRNA and the donor templates are shown in the Reagents and tools table. Donor templates were designed to include non-coding substitutions to aid genome DNA PCR for identifying knock-in events and to facilitate cloning; these substitutions are noted in the Reagents and tools table.

[3] = tested on: PolII Ser2 phosphorylation, cyclin K and CDK12 levels in MCF7 cells; assay: Immunoblotting after CDK12 drugs, MCF7; conditions: WT MCF7; 6 h; immunoblot
Description: as §1

SMILES | PolII phosphorylation [1] | % Growth (MCF7 cells; Log10 Conc. (nM) 0.09, 4 days) | % Growth (MCF7 cells; Log10 Conc. (nM) 0.69, 4 days) | % Growth (MCF7 cells; Log10 Conc. (nM) 1.29, 4 days) | % Growth (MCF7 cells; Log10 Conc. (nM) 1.89, 4 days) | % Growth (MCF7 cells; Log10 Conc. (nM) -0.52, 4 days) | % Growth (MCF7 cells; Log10 Conc. (nM) -1.12, 4 days) | Fold Resistance ([2]; MCF7 CDK12-D819N vs MCF7) | % Growth ([2]; Log10 Conc. (nM) 0.09) | % Growth ([2]; Log10 Conc. (nM) 0.69) | % Growth ([2]; Log10 Conc. (nM) 1.29) | % Growth ([2]; Log10 Conc. (nM) 1.89) | % Growth ([2]; Log10 Conc. (nM) 2.49) | % Growth ([2]; Log10 Conc. (nM) -0.52) | % Growth ([2]; Log10 Conc. (nM) -1.12) | further results
CC[C@H](CO)Nc1nc(NCc2ccc(-c3ccccn3)cc2)c2ncn(C(C)C)c2n1 [(R)-CR8] | not inhibited | 113.64% and 90.46% and 92.99% | 122.04% and 94.84% and 85.58% | 76.32% and 89.54% and 75.98% | 57.39% and 71.11% and 59.97% | 115.95% and 88.99% and 104.00% | 101.40% and 88.53% and 107.01% | 12.6 fold | 94.80% and 70.33% and 88.48% | 98.42% and 96.39% and 105.30% | 84.25% and 91.23% and 97.75% | 95.93% and 89.18% and 103.58% | 84.48% and 84.10% and 82.39% | 97.14% and 75.33% and 99.34% | 97.97% and 74.35% and 85.17% | CCNK and CDK12 levels [1]: not reduced; IC50 (MCF7 cells): 84.5 nM; IC50 [2]: 1060 nM; Levels of cyclin K and CDK12 [3]: reduced; PolII Ser2 phosphorylation [3]: reduced
CN(C)C/C=C/C(=O)Nc1ccc(C(=O)N2CCC[C@@H](Nc3ncc(Cl)c(-c4c[nH]c5ccccc45)n3)C2)cc1 [THZ531] | Nor was inhibition of PolII Ser2 phosphorylation by THZ531 prevented | 83.64% and 110.72% and 83.40% | 91.77% and 84.06% and 83.58% | 66.96% and 86.43% and 81.13% | 75.32% and 77.69% and 76.55% | 81.18% and 108.13% and 93.60% | 80.76% and 102.91% and 88.48% | 1.8 fold | 81.51% and 77.00% | 84.74% and 98.74% | 57.64% and 84.58% | 68.69% and 77.28% | 55.68% and 52.04% | 82.78% and 107.29% | 79.06% and 90.61% | IC50 (MCF7 cells; Homo sapiens, 96 h): 356 nM; % Growth (MCF7 cells; Log10 Conc. (nM) 2.49, 4 days): 43.53% and 60.32% and 39.54%; % Growth (MCF7 cells; Log10 Conc. (nM) 3.70, 4 days): 4.54% and 7.84% and 2.57%; IC50 ([2]; Homo sapiens): 656 nM; Difference between the cell lines in growth response ([2]; MCF7 CDK12-D819N vs MCF7): no significant difference; % Growth ([2]; Log10 Conc. (nM) 3.10): 37.19% and 21.76%; % Growth ([2]; Log10 Conc. (nM) 3.70): 3.93% and -0.68%
